EP1235797B1, “ARALKYL-1,2-DIAMINES HAVING CALCIMIMETIC ACTIVITY AND PREPARATION MODE” (CENTRE NATIONAL DE LA RECHERCHE SCIENTIFIQUE (CNRS), priority 1999, dated 2001)

Tests used:
[1] = molecular target: T1, CaSR de rat (Rattus norvegicus, UniProt P48442); experiment: Accumulation of tritiated inositol phosphates ([3H]IP) in transfected CHO(CaSR) cells; format: cell-based; details: compound 10 µM; for activation at 10 µM: read-out: Accumulation d'(^3H)-IP % de la réponse 10mM Ca^2+ ± E.S.; for Accumulation d'(^3H)-IP % du taux basal. CHO (CaSR) / activity at 10 µM: basal level in presence of 2 mM Ca^2+ = 100 %; for activity at 10 µM: read-out: Accumulation d'(^3H)-IP % du taux basal. CHO (CaSR)
T1 construct: expressed in transfected cells; host or cells: CHO (Chinese hamster ovary) cells, line CHO(CaSR)
T1 sequence (P48442 20-1079): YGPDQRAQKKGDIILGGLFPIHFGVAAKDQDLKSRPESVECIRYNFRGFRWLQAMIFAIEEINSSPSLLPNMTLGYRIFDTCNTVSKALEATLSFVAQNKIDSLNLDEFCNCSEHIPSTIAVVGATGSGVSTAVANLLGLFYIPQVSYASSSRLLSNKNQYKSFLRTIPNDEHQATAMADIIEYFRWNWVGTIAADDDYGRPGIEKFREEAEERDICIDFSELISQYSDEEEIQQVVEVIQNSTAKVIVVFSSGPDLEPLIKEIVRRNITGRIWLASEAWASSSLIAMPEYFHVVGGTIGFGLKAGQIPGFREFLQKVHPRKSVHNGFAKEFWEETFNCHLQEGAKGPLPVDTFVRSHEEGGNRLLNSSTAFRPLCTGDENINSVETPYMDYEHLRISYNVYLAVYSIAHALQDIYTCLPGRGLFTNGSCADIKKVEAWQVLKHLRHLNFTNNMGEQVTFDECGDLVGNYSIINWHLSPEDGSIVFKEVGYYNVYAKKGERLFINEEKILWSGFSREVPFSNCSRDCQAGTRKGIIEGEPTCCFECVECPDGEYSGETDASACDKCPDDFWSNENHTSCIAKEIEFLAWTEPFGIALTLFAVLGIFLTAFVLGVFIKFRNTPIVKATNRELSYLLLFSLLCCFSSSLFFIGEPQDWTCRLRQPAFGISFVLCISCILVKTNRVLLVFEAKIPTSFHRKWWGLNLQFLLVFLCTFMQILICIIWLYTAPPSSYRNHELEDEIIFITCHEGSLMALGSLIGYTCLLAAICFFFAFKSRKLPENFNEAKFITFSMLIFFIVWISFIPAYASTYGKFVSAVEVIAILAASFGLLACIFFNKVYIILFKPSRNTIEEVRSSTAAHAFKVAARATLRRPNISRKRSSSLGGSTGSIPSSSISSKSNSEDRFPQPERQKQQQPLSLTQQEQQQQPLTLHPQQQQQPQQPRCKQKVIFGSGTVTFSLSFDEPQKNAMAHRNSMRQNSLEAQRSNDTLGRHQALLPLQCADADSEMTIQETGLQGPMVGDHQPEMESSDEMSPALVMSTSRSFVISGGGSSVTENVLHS
Source text: L'ADN complémentaire codant pour le CaSR de rat a été isolé à partir d'une banque ADNc de striatum de rat (Ruat et al, Proc. Natl. Acad. Sci., 1995). Ce récepteur est identique au niveau de sa séquence en acides aminés à celui exprimé dans les autres tissus. Des cellules ovariennes de hamster chinois (CHO) transfectées exprimant le CaSR de rat (CHO(CaSR)) ont été caractérisées et les signaux chimiques (seconds messagers) induits par l'activation de ce récepteur ont été analysés. Ainsi, un test biochimique permettant de mesurer l'accumulation d'inositols phosphates tritiés [^3H]IP en réponse à l'activation du récepteur a été mis au point (Ruat et al, J. Biol. Chem., 1996; Ferry et al, Biochem. Biophys. Res. Commun., 1997).
L'activité calcimimétique des composés a été estimée en mesurant l'accumulation d'inositols phosphates tritiés induite par 10 µM de chacun des composés en présence de 2 mM de Ca^2+ dans les cellules CHO(CaSR) (Ferry et al, Biochem Biophys Res Commun, 1997).
Cette activation a été comparée à celle induite par le composé NPS-R- 568, un calcimimétique de référence et utilisé à une concentration de 10 µM (Tableau 1) (Ferry et al, Biochem Biophys Res Commun, 1997; Nemeth et al, Proc Natl Acad Sci USA, 1997).
Dans le tableau 1, l'activité calcimimétique des composés PHD est comparée à celle d'un composé de référence, le NPS-R-568 utilisé à la même concentration et dans les mêmes conditions expérimentales. Cette activité est exprimée en pourcentage de l'activité de 10 mM de Ca^2+. Les moyennes ± erreurs standards de 2 à 5 manipulations indépendantes sont indiquées. Les expériences ont été réalisées en présence de 2 mM de Ca^2+.
(§1) L'accumulation d'inositols phosphates tritiés est exprimée en pourcentage du taux de base observé en présence de 2 mM Ca^2+ (100 %) dans les cellules CHO(WT*) ou CHO(CaSR).

[2] = tested on: cellules CHO(WT*); experiment: Specificity control: [3H]IP accumulation in CHO(WT*) control cells transfected with the plasmid alone, not expressing CaSR; format: cell-based, hamster chinois; details: compound 10 µM, basal level in presence of 2 mM Ca^2+ = 100 %; for activity at 10 µM: read-out: Accumulation d'(^3H)-IP % du taux basal. CHO (WT*)
Method: Les molécules PHD, utilisées à une concentration de 10 µM ne conduisent pas ou peu à l'accumulation d'[^3H]IP dans des cellules CHO(WT*) témoins ce qui suggère leur spécificité d'action vis-à-vis du CaSR (Tableau 2). Les cellules CHO(WT*) ont été tranfectées avec le plasmide seul et n'expriment pas le CaSR.
as §1

[3] = in presence of 2 mM Ca^2+, mean ± standard error of 2 to 5 independent experiments

| activation at 10 µM [1, 3] [%] | SMILES | other results |
| --- | --- | --- |
| 37 ± 5 | COc1ccc(S(=O)(=O)NC(CNC(C)c2cccc3ccccc23)Cc2cccc(C)c2OC)cc1 (stereo not drawn) [PHD 235] | – |
| 22 ± 10 | COc1cccc([C@@H](C)NCC(NS(=O)(=O)c2ccc(C)cc2)c2ccccc2)c1 (stereo partly drawn) [PHD 178 B] | – |
| 65 ± 2 | COc1ccc(S(=O)(=O)NC(CNC(C)c2cccc3ccccc23)Cc2ccccc2OC)cc1 (stereo not drawn) [PHD 230] | – |
| 8 ± 4 | CC(NCC(Cc1ccccc1)NS(=O)(=O)c1ccc([N+](=O)[O-])cc1)c1ccccc1 (stereo not drawn) [PHD 87] | – |
| – | C[C@@H](NCC(Cc1ccccc1)NS(=O)(=O)c1ccc([N+](=O)[O-])cc1)c1ccccc1 (single isomer, unassigned) [PHD 127 B] | Accumulation d'(^3H)-IP % de la réponse 10mM Ca^2+ ± E.S. [1, 3]: 13 ± 3% |
| 97 ± 13 | COc1ccc(S(=O)(=O)NC(CNC(C)c2cccc3ccccc23)Cc2ccccc2)cc1OC (stereo not drawn) [PHD 321, N^2(3,4-diméthoxybenzènesulfonyl)-N^1[1-(1-naphtyl)éthyl]-3-phénylpropane-1,2-diamine] | Accumulation d'(^3H)-IP % du taux basal. CHO (WT*) [2]: peu ou pas d'accumulation; activity at 10 µM [2]: 124 ± 4%; Accumulation d'(^3H)-IP % du taux basal. CHO (CaSR) [1]: une forte accumulation; activity at 10 µM [1]: 446 ± 22% |
| 38 ± 20 | CC(NCC(Cc1ccccc1)NS(=O)(=O)c1ccc(Cl)cc1)c1cccc2ccccc12 (stereo not drawn) [PHD 203] | – |
| 48 ± 9 | CC(NCC(Cc1ccccc1)NS(=O)(=O)c1ccccc1C(F)(F)F)c1cccc2ccccc12 (stereo not drawn) [PHD 306] | – |
| 34 ± 5 | COc1ccc(S(=O)(=O)NC(CN[C@H](C)c2cccc(OC)c2)Cc2ccccc2)cc1 (stereo partly drawn) [PHD 217] | – |
| 31 ± 3 | Cc1ccc(S(=O)(=O)NC(CNC(C)c2cccc3ccccc23)c2ccccc2)cc1 (stereo not drawn) [PHD 176 B] | – |
| 2 ± 4 | CC(NCC(Cc1ccccc1)NS(=O)(=O)c1ccc(N)cc1)c1ccccc1 (stereo not drawn) [PHD 125] | – |
| 23 ± 15 | Cc1ccc(S(=O)(=O)NC(CNC(C)c2ccccc2)Cc2ccccc2)cc1 (stereo not drawn) [PHD 121] | – |
| 6 ± 6 | COc1cccc([C@@H](C)NC(CNS(=O)(=O)c2ccc(C)cc2)c2ccccc2)c1 (stereo partly drawn) [PHD 178 A] | – |
| 78 ± 1 | CC(NCC(Cc1ccccc1)NS(=O)(=O)c1cccs1)c1cccc2ccccc12 (stereo not drawn) [PHD 316] | – |
| 57 ± 6 | CC(NCC(Cc1ccccc1)NS(C)(=O)=O)c1cccc2ccccc12 (stereo not drawn) [PHD 322] | – |
| 83 ± 4 | CC(NCC(Cc1ccccc1)NS(=O)(=O)c1cccc(Cl)c1)c1cccc2ccccc12 (stereo not drawn) [PHD 308] | Accumulation d'(^3H)-IP % du taux basal. CHO (WT*) [2]: peu ou pas d'accumulation; activity at 10 µM [2]: 124 ± 9%; Accumulation d'(^3H)-IP % du taux basal. CHO (CaSR) [1]: une forte accumulation; activity at 10 µM [1]: 314 ± 13% |
| 39 ± 1 | COc1ccc(S(=O)(=O)NC(CCc2ccccc2)CNC(C)c2cccc3ccccc23)cc1 (stereo not drawn) [PHD 218] | – |
| 95 ± 4 | CC(NCC(Cc1ccccc1)NCc1ccc(F)cc1)c1cccc2ccccc12 (stereo not drawn) [PHD 320] | – |
| 68 ± 9 | Cc1ccc(S(=O)(=O)NC(CNC(C)c2cccc3ccccc23)Cc2ccccc2)cc1 (stereo not drawn) [PHD 181] | – |
| 45 ± 1 | COc1ccc(CC(CNC(C)c2cccc3ccccc23)NS(=O)(=O)c2ccc(OC)cc2)cc1 (stereo not drawn) [PHD 267] | – |

| activation at 10 µM [1, 3] [%] | SMILES | other results |
| --- | --- | --- |
| 79 ± 10 | CC(NCC(Cc1ccccc1)NS(=O)(=O)c1ccccc1Cl)c1cccc2ccccc12 (stereo not drawn) [PHD 301] | Accumulation d'(^3H)-IP % du taux basal. CHO (WT*) [2]: peu ou pas d'accumulation; activity at 10 µM [2]: 119 ± 6%; Accumulation d'(^3H)-IP % du taux basal. CHO (CaSR) [1]: une forte accumulation; activity at 10 µM [1]: 304 ± 18% |
| 3 ± 2 | CC(NCC(N)Cc1ccccc1)c1ccccc1 (stereo not drawn) [PHD 90] | – |
| 6 ± 1 | Cc1ccc(S(=O)(=O)NCC(NC(C)c2cccc3ccccc23)c2ccccc2)cc1 (stereo not drawn) [PHD 176 A] | – |
| 98 ± 8 | CC(NCC(Cc1ccccc1)NCc1ccccc1Cl)c1cccc2ccccc12 (stereo not drawn) [PHD 307, N^2-(2-Chlorobenzyl)-N^1-[1-(1-naphtyl)éthyl]-3-phénylpropane-1,2-diamine] | Accumulation d'(^3H)-IP % du taux basal. CHO (WT*) [2]: peu ou pas d'accumulation; activity at 10 µM [2]: 134 ± 11%; Accumulation d'(^3H)-IP % du taux basal. CHO (CaSR) [1]: une forte accumulation; activity at 10 µM [1]: 393 ± 28% |
| 90 ± 8 | CC(NCC(Cc1ccccc1)NCc1ccccc1F)c1cccc2ccccc12 (stereo not drawn) [PHD 323] | – |
| 60 ± 4 | COc1ccc(S(=O)(=O)NC(CNC(C)c2cccc3ccccc23)Cc2ccccc2Cl)cc1 (stereo not drawn) [PHD 242] | – |
| 80 ± 8 | CC(NCC(Cc1ccccc1)NCc1ccccc1)c1cccc2ccccc12 (stereo not drawn) [PHD 285] | – |
| 12 ± 5 | C[C@@H](NCC(Cc1ccccc1)NS(=O)(=O)c1ccc([N+](=O)[O-])cc1)c1ccccc1 (single isomer, unassigned) [PHD 127 A] | – |
| 47 ± 2 | COc1ccc(S(=O)(=O)NC(CNC(C)c2cccc3ccccc23)Cc2ccc3c(c2)OCO3)cc1 (stereo not drawn) [PHD 271] | – |
| 30 ± 2 | COc1ccc(S(=O)(=O)NC(C)CNC(C)c2cccc3ccccc23)cc1 (stereo not drawn) [PHD 280] | – |
| 78 ± 10 | CC(NCC(Cc1ccccc1)NS(=O)(=O)c1ccccc1)c1cccc2ccccc12 (stereo not drawn) [PHD 202] | – |
| 45 ± 3 | COc1ccc(S(=O)(=O)NCCNC(C)c2cccc3ccccc23)cc1 (stereo not drawn) [PHD 288] | – |
| 80 ± 12 | COc1ccc(S(=O)(=O)NC(CNC(C)c2cccc3ccccc23)Cc2ccccc2)cc1 (stereo not drawn) [PHD 206] | – |
| 34 ± 2 | CC(NCC(Cc1ccccc1)NS(=O)(=O)c1ccc2ccccc2c1)c1cccc2ccccc12 (stereo not drawn) [PHD 318] | – |
| 36 ± 12 | COc1cccc([C@@H](C)NCC(Cc2ccccc2)NS(=O)(=O)c2ccc(C)cc2)c1 (stereo partly drawn) [PHD 182] | – |
| 27 ± 11 | CC(NCC(Cc1ccccc1)NS(=O)(=O)c1ccc([N+](=O)[O-])cc1)c1cccc2ccccc12 (stereo not drawn) [PHD 124] | – |
| 29 ± 13 | CC(NS(=O)(=O)c1ccc2ccccc2c1)c1cccc2ccccc12 (stereo not drawn) [PHD 317] | – |
| 29 ± 2 | CC(NCC(Cc1ccccc1)NS(=O)(=O)c1ccc(C(F)(F)F)cc1)c1cccc2ccccc12 (stereo not drawn) [PHD 304] | – |
| 31 ± 7 | CC(NCC(Cc1ccccc1)NS(=O)(=O)c1cccc2ccccc12)c1cccc2ccccc12 (stereo not drawn) [PHD 319] | – |
| 78 ± 6 | CC(NCC(Cc1ccccc1)NCc1cccc(Cl)c1)c1cccc2ccccc12 (stereo not drawn) [PHD 312] | Accumulation d'(^3H)-IP % du taux basal. CHO (WT*) [2]: peu ou pas d'accumulation; activity at 10 µM [2]: 121 ± 6%; Accumulation d'(^3H)-IP % du taux basal. CHO (CaSR) [1]: une forte accumulation; activity at 10 µM [1]: 383 ± 39% |
